Values of other authors in US20090062244A1, “PHARMACEUTICAL COMPOSITION” (priority 2007, published 2009).

Conditions: room temperature

O=C(OOC(=O)c1ccccc1)c1ccccc1 [benzoyl peroxide]
Solubility in 95% alcohol compared with absolute alcohol: several times lower
